Data set [1] is described as follows: Hygroscopicity by Dynamic Vapour Sorption (DVS). The class given is physicochemical. As to conditions: 25° C.; for Hygroscopicity: DVS, 0 to 90% RH, potassium salt. The procedure:
Dynamic Vapour Sorption (DVS) analysis was carried out on a sample of Example compound 1.
Approximately 20 mg of sample was placed into a wire-mesh vapour sorption balance pan and loaded into an ‘IgaSorp’ vapour sorption balance (Hiden Analytical Instruments). The sample was then dried by maintaining a 0% humidity environment until no further weight change was recorded.
The sample was then subjected to a step profile from 0 to 90% RH at 10% RH increments. The desorption isotherm was from 90% RH o 0% RH in 10% RH steps. The weight change during the sorption/desorption cycles were then monitored, allowing for the hygroscopic nature of the sample to be determined. Analysis was performed using the following parameters: • Analysis Mode F1 • Wait Time 99% • Sample Temperature 25° C. • Min Time Out 30 Mins • MaxTime Out 180 Mins • Gas Flow Rate 250 ml/min

Data set [2] in a line: Slurry in water for 48 hours, re-examined by XRPD (disproportionation). The class given is physicochemical. Conditions: slurry in water 20 mg / 400 uL, ambient temperature, potassium salt. The procedure:
When a sample of Example compound 1 was stored in a slurry in water at 20 mg / 400uL for 48 hours at ambient temperature, recovered, dried by evaporation and re-examined by XRPD, there was no change in the X-ray diffractogram.

Data set [3] has as its system CD4+ adoptive transfer induced inflammatory bowel disease. Briefly: CD4+ adoptive transfer induced inflammatory bowel disease in mice. The class given is in vivo. The procedure: The efficacy of the 5-chloro-4-hydroxy-1-methyl-2-oxo-N-phenyl-quinoline-3-carboxamide potassium salt in inhibiting inflammation/edema associated with inflammatory bowel disease was evaluated in a CD4+ adoptive transfer induced inflammatory bowel disease in mice.
On study day -1, SCID mice were weighed and evenly distributed into treatment groups based on body weight.
On study day 0, Balb/C mice were terminated, and spleens obtained for CD4^+CD45RB^high cell isolation (Using SCID IBD Cell Separation Protocol). After cells were sorted and obtained, each animal in the treatment groups received an IP injection of CD4^+CD45RB^high cells at a minimum 4x10^5 cells (200 µl/mouse injections). A naive group of mice was followed through the experiment without receiving the injection of cells. The naive group comprised 5 animals.
On study day 21, treatment with 5-chloro-4-hydroxy-1-methyl-2-oxo-N-phenylquinoline-3-carboxamide potassium salt (1 mg/kg, daily day 21 to 49) was initiated. The compound was formulated as a 0.1 mg/mL suspension with sodium carboxymethyl cellulose (1%, w/v). Mice received either the 5-chloro-4-hydroxy-1-methyl-2-oxo-N-phenyl-quinoline-3-carboxamide potassium salt (Example compound 1) or vehicle. Each of those groups comprised 10 animals.
On study day 49, animals were anesthetized with Isoflurane and bled to exsanguination followed by cervical dislocation. The entire colon was removed, measured, and weighed. The colon was analysed for its level of interferon-γ and IL-22. The inflammation in the colons was also scored by visual and histopathological assessments.

Data set [4] is described as follows: Thermogravimetric analysis (TGA) and differential scanning calorimetry (DSC). Conditions: heating 20° C./min, nitrogen. The class given is physicochemical. The procedure: For the TGA analysis, approximately 5-10 mg of sample of Example Compound 1 was accurately weighed into a pierced Tzero aluminium pan and sealed with a pinhole lid using a crimper. The sample was then loaded into the chamber of a TGA thermal analyser at ambient temperature. A TA Instruments TGA5500 device was used. The sample was then heated at a rate of 20° C./min from 20° C. to 400° C. The purge gas used was nitrogen at a flow rate of 50 cm^3/min.
For the DSC analysis, approximately 2 mg of sample was accurately weighed into a pierced Tzero aluminium pan and sealed using a universal crimper. The sample was then loaded into the chamber of a DSC analyser at ambient temperature. A TA Instruments DSC2500 device was used. The sample was then heated at a rate of 20° C./min from 30° C. to 400° C. The purge gas used was nitrogen at a flow rate of 50 cm^3/min
In general terms: Differential scanning calorimetry records heat flow against a reference as temperature is scanned.

Data set [5] can be described thus: In vivo pharmacokinetic study in rats after oral dosing. Also noted: species or system Sprague Dawley rats. Conditions: 1 mg/kg oral; for Level in plasma after oral dosing: 15 min to 24 h post dose. Here is the method: An in vivo pharmacokinetic study in rats was performed to determine if 5-chloro-4-hydroxy-1-methyl-2-oxo-N-phenyl-quinoline-3-carboxamide potassium salt (example compound 1) can be absorbed and detected systemically after oral dosing.
4 male Sprague Dawley rats, approximately 225 g - 250 g at dosing were dosed with 1 mg/kg of Example compound 2 formulated as a 0.1 mg/mL suspension with sodium carboxymethyl cellulose (1%, w/v). Blood samples were taken at 15 min, 30 min, 1 h, 2 h, 4 h, 6 h, 8 hand 24 h post dose
At each blood sampling approximately 250 µL blood was sampled in K3EDTA vials and approximately 100 µL plasma was also prepared.
The plasma samples were prepared by mixing 50 µL plasma with 250 µL of internal standard solution (20 ng/ml of phenacetin in ACN with 1% formic acid), mixed and centrifuged (20 min, 4000 rpm).
Plasma samples were transferred to Waters Ostro 96-well plate and drawn through the plate by applying 6-8 psi positive pressure for 10 min. 100 µL of supernatant was further diluted with 50 µL UP water and sample was submitted to analysis.
The standard and QC samples were prepared into blank rat colon homogenate and blank rat plasma. Standards were spiked into concentrations 0.1 - 10000 ng/ml of the analytes, QC samples into 3, 30, 300 and 3000 ng/ml, and were otherwise treated as samples.

The nature of data set [6]: Solubility in PBS (pH 7.4) and simulated colonic fluid, saturated solutions by HPLC-UV. The class given is physicochemical. Conditions: thermodynamic from solid, saturated solution, ambient temperature. Here is the method: The solubility and stability at room temperature of Example compound 1 and the free acid compound 5-chloro-4-hydroxy-1-methyl-2-oxo-N-phenyl-quinoline-3-carboxamide (described in Example 1a) above) was determined in PBS (pH 7.4) and in simulated colonic fluid (SCF) at ambient temperature. The SCF was the product FaSSCof obtained from Biorelevant.com prepared according to the manufacturer’s instructions. FaSSCof contains 0.15 mM sodium cholate, 0.3 mM Phospholipids, 0.1 mM Oleate, 120 mM sodium hydroxide, 45 mM TRIS and 76 mM maleate.
Saturated solutions were prepared in these solvents and the concentrations/impurity profile was determined by HPLC-UV using a calibration curve in the range of 1 to 150 µg/ml at 300 nm or 320 nm. Visual evaluation was also performed after every step over the testing period.

[7] abbreviates: listed as 5-chloro-4-hydroxy-1-methyl-2-oxo-N-phenylquinoline-3-carboxamide potassium salt.

Like-named read-outs stand apart in the source and are kept apart here.

The values below come from US20230202982A1, “5-CHLORO-4-HYDROXY-1-METHYL-2-OXO-N-PHENYL-QUINOLINE-3-CARBOXAMIDE POTASSIUM SALT FOR TREATING INFLAMMATORY BOWEL DISEASES” (Aqilion AB, priority 2020, published 2023).

By solubility is commonly meant the dissolved amount per volume that the medium holds. `Cn1c(=O)c(C(=O)Nc2ccccc2)c([O-])c2c(Cl)cccc21.[K+]` [Example compound 1, 5-chloro-4-hydroxy-1-methyl-2-oxo-N-phenyl-quinoline-3-carboxamide potassium salt]: the Hygroscopicity entry is given as “not hygroscopic” in data set [1] (setting [7]) and “non-hygroscopic” in data set [1]. Further, the “Reversible weight gain (DVS)” value in data set [1] (analysed to 80% RH) is “less than 0.2%”. The figures for the “Stability in water slurry: change in X-ray diffractogram” value in data set [2] (setting [7]) and in data set [2] were “stable when in a slurry” and “no change”, respectively. For the same compound, the Body weight change entry in data set [3] (1 mg/kg daily day 21 to 49, SCID mice, vs vehicle, FIG. 4) is recorded as “less weight loss”. The “Colon level of inflammatory markers (interferon-γ and IL-22)” value in data set [3] (1 mg/kg daily day 21 to 49, day 49, vs vehicle, FIG. 5) was “lower levels of inflammatory markers”. The “Colon inflammation scores (visual and histopathological)” value in data set [3] (1 mg/kg daily day 21 to 49, day 49, vs vehicle, FIG. 6) is listed as “fewer signs of inflammation”. Moreover, the “Inhibition of inflammation/edema associated with inflammatory bowel disease” value in data set [3] (CD4+ adoptive transfer model in mice, summary statement) is “effective in inhibiting inflammation/edema”. Further, the Degradation temperature in data set [4] (listed as 5-chloro-4-hydroxy-1-methyl-2-oxo-N-phenyl-quinoline-3-carboxamide potassium sal, potassium salt) was 347 °C; in data set [4] (listed as Example Compound 1, potassium salt), 347 °C ±2 °C; in data set [4] (potassium salt) it was 347 °C. The “Level in plasma after oral dosing” value is listed as “absorbed through the intestine into the plasma” in data set [5] (FIG. 7, listed as 5-chloro-4-hydroxy-1-methyl-2-oxo-N-phenyl-quinoline-3-carboxamide potassium sal, potassium salt) and “detected in the plasma” in data set [5] (FIG. 7, potassium salt). In data set [5] (FIG. 7), the Clearance from plasma entry is on record as “rapidly cleared”. Also, the solubility is 0.91 µg/mL in data set [6] (aqueous buffer, PBS (pH 7.4), read-out: Solubility in PBS (pH7.4)) and 7.99 µg/mL in data set [6] (simulated colonic fluid (FaSSCof), fassgf or other biorelevant, SCF (FaSSCof), read-out: Solubility in simulated colonic fluid (SCF)).
